US20240239788A1, “SMALL MOLECULE INHIBITORS OF KRAS G12D MUTANT” (Merck Sharp & Dohme LLC, priority 2021, published 2024)
Counter-ions that a name gives are not always drawn. Like-named read-outs stand apart in the source and are kept apart here. One block for each molecule: values may come before it.

How the values were obtained:
[1] = target: KRAS protein containing G12D mutation (Homo sapiens (Human), UniProt P01116, G12D); assay: SOS-catalyzed nucleotide exchange assay (GNE), TR-FRET; assay type: biochemical; conditions: biotinylated KRAS G12D, SOS and GTP, 60-minute incubation
Protocol: Compounds are added to this complex and then after a 60-minute incubation time the mixture is treated with SOS and unlabeled GTP. Small molecule inhibitors stabilize the Bodipy-GDP complex whereas the untreated protein rapidly exchanges Bodipy-GDP for unlabeled GTP resulting in reduced TR-FRET signal.
This solution is referred to as biotinylated KRAS G12D stock solution.

[2] = test system: AsPC-1 cells containing homozygous KRAS-G12D activating mutation; assay: Cellular phospho-ERK assay with 10% FBS (Examples 107a-256); assay type: cell-based
Protocol: 5% CO2 for 2 hours. […] Assay plates were read on a EnVision Multimode Plate Reader (PerkinElmer) and the ratio of p-Erk vs total Erk in each well was used as the final readout.

[3] = Homo sapiens, ASPC1, 2 h, read-out: IC50 (nM) pERK (cell with FBS 10%), AsPC-1 cells, 10% fetal bovine serum, 2 hours, ratio of p-Erk vs total Erk
[4] = read-out: IC50 (nM) pERK (cell with FBS 10%), AsPC-1 cells, 10% fetal bovine serum, 2 hours, ratio of p-Erk vs total Erk

Molecule: Oc1c(F)cc(Cl)c(Cl)c1-c1c(Cl)cc2c(N3C[C@H]4CC[C@@H](C3)N4)nc(OC[C@@]34CCCN3C[C@H](F)C4)nc2c1F [Ex. 199, 2-(4-((1R,5S)-3,8-diazabicyclo[3.2.1]-octan-3-yl)-6-chloro-8-fluoro-2-(((2R,7aS)-2-fluorotetrahydro-1H-pyrrolizin-7a(5H)-yl)-methoxy)quinazolin-7-yl)-3,4-dichloro-6-fluorophenol]
IC50 [1]: 2620 nM | IC50 [2, 3]: 30000 nM

Molecule: Cc1cc(N)nc(-c2c(F)cc3c(N4C[C@H]5CC[C@@H](C4)N5)nc(OC[C@@]45CCCN4C[C@H](F)C5)nc3c2F)c1C1CC1 [Ex. 237, 6-(4-((1R,5S)-3,8-diazabicyclo[3.2.1]octan-3-yl)-6,8-difluoro-2-(((2R,7aS)-2-fluorotetrahydro-1H-pyrrolizin-7a(5H)-yl)methoxy)quinazolin-7-yl)-5-cyclopropyl-4-methylpyridin-2-amine]
IC50 [1]: 57.6 nM | IC50 [2, 3]: 508 nM

IC50 [1]: 98.5 nM | IC50 [2, 4]: 1740 nM
Molecule: CCc1cnn2cc(O)cc(-c3c(F)cc4c(N5C[C@H]6CC[C@@](C)(C5)N6)nc(OC[C@@]56CCCN5C[C@H](F)C6)nc4c3F)c12 [compound 229, 4-(6,8-difluoro-2-(((2R,7aS)-2-fluorotetrahydro-1H-pyrrolizin-7a(5H)-yl)methoxy)-4-((1S,5R)-1-methyl-3,8-diazabicyclo[3.2.1]octan-3-yl)quinazolin-7-yl)-3-ethylpyrazolo[1.5-a]pyridin-6-ol]

Molecule: C[C@]12CC[C@H](CN(c3nc(OC[C@@]45CCCN4C[C@H](F)C5)nc4c(F)c(-c5cc(N)c(F)c6cccc(Cl)c56)c(F)cc34)C1)N2 (single isomer, unassigned) [Ex. 163b]
IC50 [1]: 4740 nM | IC50 [2, 4]: 35600 nM

Molecule: C[C@]12CC[C@H](CN(c3nc(OC[C@@H]4CCN(C5CCCCC5O)C4)nc4c(F)c(-c5cc(O)cc6ccccc56)c(Cl)cc34)C1)N2 (stereo partly drawn) [Example 121, 4-(6-chloro-8-fluoro-2-(((3R)-1-(2-hydroxycyclohexyl)pyrrolidin-3-yl)methoxy)-4-((1S,5R)-1-methyl-3,8-diazabicyclo[3.2.1]octan-3-yl)quinazolin-7-yl)naphthalen-2-ol, TFA]
IC50 [1]: 615 nM | IC50 [2, 3]: 11400 nM

Molecule: 2,2,2-trifluoroacetaldehyde-6-(6-chloro-8-fluoro-2-(((2R,7aS)-2-fluorotetrahydro-1H-pyrrolizin-7a(5H)-yl)methoxy)-4-((1S,5R)-1-methyl-3,8-diazabicyclo[3.2.1]octan-3-yl)quinazolin-7-yl)-4-methyl-5-(trifluoromethyl)pyridin-2-amine (1/1) [Ex. 238b]
IC50 [1]: 2710 nM | IC50 [2, 4]: 21100 nM

Molecule: Cc1cc2[nH]nc(C)c2c(-c2c(F)cc3c(N4CC5CCC(C4)N5)nc(OC[C@@]45CCCN4C[C@H](F)C5)nc3c2F)c1C(F)(F)F (single isomer, unassigned) [Ex. 128b]
IC50 [1]: 232 nM | IC50 [2, 4]: 2850 nM

Molecule: C[C@]12CCC(CN(c3nc(OC[C@@]45CCCN4C[C@H](F)C5)nc4c(F)c(-c5cc(O)cn6ncc(Cl)c56)c(F)cc34)C1)N2 (single isomer, unassigned) [Ex. 230b, TFA]
IC50 [1]: 162 nM | IC50 ([2]; read-out: IC50 (nM) pERK (cell with FBS 10%), AsPC-1 cells, 10% fetal bovine serum, 2 hours, ratio of p-Erk vs total Erk, TFA): 9100 nM

Molecule: C[C@@]12CC[C@H](CN(c3nc(OC[C@@]45CCCN4C[C@H](F)C5)nc4c(F)c(-c5cc(O)cc6ccc(F)c(Cl)c56)c(F)cc34)C1)N2 (single isomer, unassigned) [Ex. 176a]
IC50 [1]: 1.91 nM | IC50 [2, 3]: 400 nM

Molecule: Nc1cnc(C(F)(F)F)c(-c2c(F)cc3c(N4C[C@H]5CC[C@@H](C4)N5)nc(OC[C@@]45CCCN4C[C@H](F)C5)nc3c2F)n1 [Ex. 134, 6-(4-((1R,5S)-3,8-diazabicyclo[3.2.1]octan-3-yl)-6,8-difluoro-2-(((2R,7aS)-2-fluorotetrahydro-1H-pyrrolizin-7a(5H)-yl)methoxy)quinazolin-7-yl)-5-(trifluoromethyl)pyrazin-2-amine]
IC50 [1]: 870 nM | IC50 [2, 3]: 13600 nM

Molecule: Cc1cc2[nH]nc(C#N)c2c(-c2c(F)cc3c(N4C[C@H]5CC[C@@H](C4)N5)nc(OC[C@@]45CCCN4C[C@H](F)C5)nc3c2F)c1C(F)F [compound 254, 4-(4-((1R,5S)-3,8-diazabicyclo[3.2.1]octan-3-yl)-6,8-difluoro-2-(((2R,7aS)-2-fluorotetrahydro-1H-pyrrolizin-7a(5H)-yl)methoxy)quinazolin-7-yl)-5-(difluoromethyl)-6-methyl-1H-indazole-3-carbonitrile]
IC50 [1]: 0.77 nM | IC50 [2, 3]: 80.3 nM

Molecule: C[C@@]12CC[C@H](CN(c3nc(OC[C@@]45CCCN4C[C@H](F)C5)nc4c(F)c(-c5cc(O)cc6cccc(F)c56)c(F)cc34)C1)N2 (single isomer, unassigned) [Ex. 186b]
IC50 [1]: 185 nM | IC50 [2, 4]: 3780 nM

Molecule: C[C@]12CC[C@H](CN(c3nc(OC[C@@]45CCCN4C[C@H](F)C5)nc4c(F)c(-c5c6cn[nH]c6cc6cccc(Cl)c56)c(F)cc34)C1)N2 [Ex. 187, 5-chloro-4-(6,8-difluoro-2-(((2R,7aS)-2-fluorotetrahydro-1H-pyrrolizin-7a(5H)-yl)-methoxy)-4-((1S,5R)-1-methyl-3,8-diaza-bicyclo[3.2.1]octan-3-yl)quinazolin-7-yl)-1H-benzo[f]indazole]
IC50 [1]: 27.3 nM | IC50 [2, 3]: 1100 nM

Molecule: C#Cc1ccc(F)c2cccc(-c3c(F)cc4c(N5C[C@H]6CC[C@@](C)(C5)N6)nc(OC[C@@]56CCCN5C[C@H](F)C6)nc4c3F)c12 [Ex. 196, 7-(8-ethynyl-5-fluoro-naphthalen-1-yl)-6,8-difluoro-2-(((2R,7aS)-2-fluorotetrahydro-1H-pyrrolizin-7a(5H)-yl)-methoxy)-4-((1S,5R)-1-methyl-3,8-diaza-bicyclo[3.2.1]octan-3-yl)quinazoline]
IC50 [1]: 45.7 nM | IC50 [2, 3]: 3410 nM

Molecule: CN(C)CC1(COc2nc(N3C[C@H]4CC[C@@](C)(C3)N4)c3cc(F)c(-c4cc(O)cc5ccccc45)c(F)c3n2)CC1 [Example 115, 4-(2-((1-((dimethylamino)methyl)cyclopropyl)methoxy)-6,8-difluoro-4-((1S,5R)-1-methyl-3,8-diazabicyclo [3.2.1]octan-3-yl)quinazolin-7-yl) naphthalen-2-ol]
IC50 [1]: 10.5 nM | IC50 [2, 3]: 1470 nM

Molecule: Cc1cc2[nH]nc(C)c2c(-c2c(F)cc3c(N4C[C@H]5CC[C@@H](C4)N5)nc(OCC4(CN5CCOCC5)CC4)nc3c2F)c1OC(F)F [Ex. 127, 4-((1-(((4-((1R,5S)-3,8-diazabicyclo[3.2.1]octan-3-yl)-7-(5-(difluoromethoxy)-3,6-dimethyl-1H-indazol-4-yl)-6,8-difluoroquinazolin-2-yl)oxy)methyl)cyclopropyl)methyl) morpholine]
IC50 [1]: 39 nM | IC50 [2, 3]: 3600 nM

Molecule: CN(C[C@@]1(COc2nc(N3C[C@H]4CC[C@@](C)(C3)N4)c3cc(F)c(-c4cc(O)cc5cccc(Cl)c45)c(F)c3n2)CC1(F)F)[C@@H]1CCC[C@H]1O [Ex. 217b]
IC50 [1]: 675 nM | IC50 [2, 4]: 8570 nM

Molecule: Nc1cc(Cl)c(C(F)(F)F)c(-c2c(Cl)cc3c(N4CC5CCC(C4)N5)nc(OC[C@@]45CCCN4C[C@H](F)C5)nc3c2F)n1 (single isomer, unassigned) [Ex. 154a]
IC50 [1]: 1.1 nM | IC50 [2, 3]: 52.1 nM

Molecule: C#Cc1c(F)ccc2cc(N)nc(-c3c(F)cc4c(N5C[C@H]6CC[C@@H](C5)N6)nc(OC[C@@]56CCCN5C[C@H](F)C6)nc4c3F)c12 (single isomer, unassigned) [252a]
IC50 [1]: 0.85 nM | IC50 [2, 3]: 64.3 nM

Molecule: Nc1cc(-c2c(F)cc3c(N4CC5CCC(C4)N5)nc(OC[C@@]45CCCN4C[C@H](F)C5)nc3c2F)c2c(Cl)cccc2n1 (single isomer, unassigned) [Ex. 231a]
IC50 [1]: 1490 nM | IC50 [2, 4]: 9300 nM

IC50 [1]: 4.93 nM | IC50 [2, 4]: 645 nM
Molecule: CN(C)C[C@@]1(COc2nc(N3C[C@H]4CC[C@@](C)(C3)N4)c3cc(C#N)c(-c4cc(O)cc5ccccc45)c(F)c3n2)CC1(F)F [Ex. 136a, 2-(((R)-1-((dimethylamino)methyl)-2,2-difluorocyclopropyl)methoxy)-8-fluoro-7-(3-hydroxynaphthalen-1-yl)-4-((1S,5R)-1-methyl-3,8-diazabicyclo[3.2.]octan-3-yl)quinazoline-6-carbonitrile]

Molecule: C[C@]12CCC(CN(c3nc(OC[C@@]45CCCN4C[C@H](F)C5)nc4c(F)c(-c5cc(O)cc6cc(F)cc(Cl)c56)c(F)cc34)C1)N2 (single isomer, unassigned) [Ex. 180a]
IC50 [1]: 6.48 nM | IC50 [2, 4]: 1040 nM

Molecule: Cc1cc(N)c(F)c(-c2c(F)cc3c(N4CC5CCC(C4)N5)nc(OC[C@@]45CCCN4C[C@H](F)C5)nc3c2F)c1C(F)(F)F (single isomer, unassigned) [Ex. 146a]
IC50 [1]: 1.56 nM | IC50 [2, 3]: 185 nM

Molecule: Oc1cc(-c2c(F)cc3c(N4CC5CCC(C4)N5)nc(OC[C@@]45CCCN4C[C@H](F)C5)nc3c2F)c2c(Cl)cccc2c1 (single isomer, unassigned) [Ex. 160b]
IC50 [1]: 367 nM | IC50 [2, 4]: 12500 nM

Molecule: Nc1cc2cccc(Cl)c2c(-c2c(F)cc3c(N4CC5CCC(C4)N5)nc(OC[C@@]45CCCN4C[C@H](F)C5)nc3c2F)n1 (single isomer, unassigned) [Ex. 189a]
IC50 [1]: 12.8 nM | IC50 [2, 3]: 672 nM

IC50 [1]: 648 nM | IC50 [2, 4]: 30000 nM
Molecule: CN(C)CC1(COc2nc(N3C[C@H]4CC[C@@](C)(C3)N4)c3cc(F)c(-c4cc(O)cc5ccccc45)c(F)c3n2)CC1C(=O)O (single isomer, unassigned) [Ex. 107a]

Molecule: N#Cc1c(N)sc2c(F)ccc(-c3c(F)cc4c(N5C[C@H]6CC[C@@H](C5)N6)nc(OC[C@@]56CCCN5C[C@H](F)C6)nc4c3F)c12 (single isomer, unassigned) [Ex. 144a]
IC50 [1]: 2.03 nM | IC50 [2, 4]: 83.9 nM
